Results on two molecules are retold here after patent US4517180A, “Peptides, process for preparing the same and psychodepressant compositions containing the same” (Amano Pharmaceutical Co., Ltd, priority 1982, dated 1985).

Data set [1] concerns Male ddy mice. The data set can be described thus: Effect on climbing behavior induced by apomorphine (Pharmacological Test 2). Details: key to Average: Mean ± S.E. (total of 7 scores), climbing behavior: sum of 7 scores; 0 = all four legs on floor, 2 = ≥3 legs on rods. It is filed as in vivo. As to conditions: for Average: Mean ± S.E. (total of 7 scores), climbing behavior: 30 min before apomorphine 0.75 mg/kg s.c., control 9.8 ± 0.7. The protocol: (§1) Effect on climbing behavior induced by apomorphine
Male ddy mice (weighing 20 to 30 g) were used, with 10 mice in each group. Each mouse was placed into a cylindrical cage, 12 cm in diameter and 14 cm in height, made up of vertical rods of 2 mm in diameter spaced apart at a distance of 10 mm in a circular arrangement. The mouse was allowed to stand therein for 2 hours. Peptide A, peptide B, CCK-8 or, as a control, the above-mentioned diluent was subcutaneously given to the animal, and 30 minutes later, 0.75 mg/kg of apomorphine was subcutaneously given. […] The test was carried out in soundproof compartments.
(§2) 0: All the four legs are on the floor.
(§3) 2: At least three legs are on rods.
Student's t-test was resorted to for statistical treatment.

Data set [2] deals with male Wister rats. As to the kind of experiment: Effect on yawning behavior induced by apomorphine. It is filed as in vivo. The protocol:
Effect on yawning behavior
Male Wister rats (weighing 200 to 300 g) were used, with 10 rats in each group. The rat was placed into a plastics cage (17×24×12 cm) with a floor mat and was then habituated for 30 minutes. Peptide A, peptide B, CCK-8 or the above-mentioned diluent serving as a control was subcutaneously given to the animal. Thirty minutes thereafter, 0.03 mg/kg of apomorphine was subcutaneously given to the animal. The number of yawns induced by apomorphine was counted during a period of 30 minutes following administration of apomorphine. The test was conducted in a soundproof compartment for each animal. Wilcoxon rank-sum test was resorted to for statistical treatment.

Data set [3] deals with Male ddy mice. As to the kind of experiment: Effect on climbing behavior induced by apomorphine (Pharmacological Test 7). It is filed as in vivo. Details: key: sum of 7 scores; each 0 = four legs on floor, 2 = ≥3 legs on rods. As to conditions: control 9.8 ± 0.7. Here is the method:
as §1
Male ddy mice (weighing 20 to 30 g) were used, with 10 mice in each group. Each mouse was placed into a cylindrical cage, 12 cm in diameter and 14 cm in height, made up of vertical rods of 2 mm in diameter spaced apart at a distance of 10 mm in a circular arrangement. The mouse was allowed to stand therein for 2 hours. Physiological saline containing a specified amount of a test compound (and 1 mM of sodium hydrogencarbonate) was subcutaneously given to one group of mice in a volume of 1 ml/10 g. (The same dose of saline only was given to a control group). […] The test was carried out in soundproof compartments.
as §2, §3
The other compounds were tested in the same manner as above. The test was carried out in soundproof compartments. Student's t-test was resorted to for statistical treatment.

Data set [4] has as its system test animals. As to the kind of experiment: Induction of catalepsy in test animals. In kind it is in vivo.
Data set [5] concerns male Wister rats. The data set can be described thus: Effect on the fixed ratio (FR20) responding in rats. In kind it is in vivo. To be noted: s.c., 15 min before 20 min session, dose giving count 50 with control as 100. Here is the method:
Effect on the fixed ratio responding in rats
The test was conducted according to the method described in Ahlenius S. and Engel J., Eur. J. Pharm., Vol. 15, 187-192 (1971).
Male Wister rats (weighing 240 to 320 g) were placed into Skinner box (product of Bil-Medika Co., Ltd., Japan, adapted to give a feed when a lever within the box is pressed) and made to learn how to take the food. In this test, one feed was given to the rats when the lever was pressed 20 times, i.e., fixed ratio (FR) 20. The rats showing stable FR20 response were divided into groups each including four rats.
Physiological saline (containing 1 mM of sodium hydrogencarbonate) containing a specified amount of a test compound was subcutaneously given to the rats of one group in a volume of 0.1 ml/100 g. (Physiological saline containing the above-mentioned amount of sodium hydrogencarbonate only was given to the control group). Fifteen minutes after the administration, the test animals were placed in the Skinner box, and the number of times the animals took the feed for 20 minutes was counted. The dose at which the count gained by the group of animals was 50, namely, ED50 value, was determined, with the count gained by the control group calculated as 100. The same procedure as above was repeated with use of the other test compounds.

A short description of data set [6]: Induction of yawning behavior. As to conditions: in vivo.
Data set [7] relates to male Wister rats. The data set can be described thus: Effect on metabolism of amine in the brain. In kind it is in vivo. The protocol:
Effect on metabolism of amine in the brain
Unfasted male Wister rats (weighing 180 to 220 g) were used. Peptide A or peptide B was subcutaneously given to the animal at a dose of 1 mg/kg, the head was irradiated with microwave 1 hour thereafter, and amine metabolite was extracted from the brain. First, removed tissues were homogenized with 1M formic acid and centrifuged at 20,000×g for 20 minutes, and the supernatant (1 ml) was shaken with 5 ml of ethyl acetate. The 3,4-dihydroxyphenylacetic acid (DOPAC), homovanillic acid (HVA) and 5-hydroxyindoleacetic acid (5-HIAA) in the ethyl acetate layer were analyzed by high-performance liquid chromatography under the following conditions. Chemcosorb, 5-ODS, 20 cm×4.6 mm I.D. was used for a separating column, and a mobile phase (0.1M KH2 PO4 (pH 5.0)-5 mM EDTA-2Na-5% acetonitrile) was passed through the colunn at a flow rate of 1 ml/min. The electrochemical detector was set to an oxidation potential of +0.8 V.

Data set [8] deals with Male ICR mice. The data set can be described thus: Inhibitory effect on hyperlocomotion induced by administration of methylphenidate. It is filed as in vivo. As to conditions: for ED50, inhibition of methylphenidate-induced hyperlocomotion: s.c. with methylphenidate 10 mg/kg s.c., measured 1 hour after, 50 with control as 100. The protocol:
Inhibitory effect on hyperlocomotion induced by administration of methylphenidate
Male ICR mice (weighing 24 to 30 g) were divided into groups, each including 10 mice. To one group of mice were subcutaneously given 10 mg/kg of methylphenidate and 0.1 ml/10 g of a saline solution of a specified amount of a test compound and 1 mM of sodium hydrogencarbonate. One hour after the administration, the test animals were checked for hyperlocomotion, which was measured with use of a device for measuring locomotion of small animals (wherein the motion of an animal shifts the center of graavity of the device to actuate a microswitch for the measurement of the amount of motion, see Folia Pharmacologica Japonica, 74, 629-639 (1978). For a control group, the same procedure as above was repeated except that the saline solution given was free from any test compound. The concentration of the test compound at which the result achieved by the group of animals was 50, namely, ED50 value, was determined, with the measurement obtained by the control group calculated as 100. The other compounds were tested in the same manner as above.

SMILES strings stand for the structures. Entries after “also recorded” stand apart in the source; their conditions may differ. Where a SMILES comes first, the peptide text is derived from it.

Regarding `CSCC[C@H](NC(=O)[C@H](Cc1ccc(OS(=O)(=O)O)cc1)NC(=O)[C@@H](N)CC(=O)O)C(=O)NCC(=O)N[C@@H](Cc1c[nH]c2ccccc12)C(=O)N[C@@H](CCSC)C(=O)N[C@@H](CC(=O)O)C(=O)N[C@@H](Cc1ccccc1)C(N)=O` [CCK-8, Asp--Tyr(SO3 H)--Met--Gly--Trp--Met--Asp--Phe--NH2, reference compound], the “Average: Mean ± S.E. (total of 7 scores), climbing behavior” value in data set [1] (0.01 mg/kg s.c.) is 10.2 ± 0.7; in data set [1] (0.1 mg/kg s.c.), 11.4 ± 0.6; in data set [1] (1 mg/kg s.c.), 9.5 ± 1.0; in data set [3] (0.01 mg/kg s.c.) it was 10.2 ± 0.7; in data set [3] (0.1 mg/kg s.c.), 11.4 ± 0.6; in data set [3] (1.0 mg/kg s.c.), 9.5 ± 1.0. Moreover, the “Effect on apomorphine-induced climbing behavior (in words)” value in data set [1] (mice, s.c.) was “little or no influence on the climbing behavior; also recorded: does not inhibit this behavior”. For the same molecule, the “Number of yawns (average)” value in data set [2] (1 mg/kg s.c., 30 min before apomorphine 0.03 mg/kg s.c., counted 30 min, control 4.5) is on record as 4.9. The “Effect on yawning behavior induced by apomorphine (in words)” value in data set [2] (rats, s.c.) is given as “not inhibited”. For the same molecule, the “Induction of catalepsy (side effect)” value in data set [4] is “induces catalepsy”. Besides, the “ED50, inhibition of FR20 responding” value in data set [5] was determined as 0.0221 mg/kg. Besides, in data set [6], the “Induction of yawning behavior (thought to be induced by a reduction in the amount of dopamine)” value was “induces no yawning behavior whatsoever”. In data set [7], the “Acceleration of the metabolism of dopamine in the brain of rats (in words)” value is recorded as “does not accelerate the metabolism of dopamine”. Besides, the “ED50, inhibition of methylphenidate-induced hyperlocomotion” value in data set [8] was determined as 0.5125 mg/kg.

Regarding `CSCC[C@H](NC(=O)[C@H](Cc1ccc(OS(=O)(=O)O)cc1)NC(=O)CCCC(=O)O)C(=O)NCC(=O)N[C@@H](Cc1c[nH]c2ccccc12)C(=O)N[C@@H](CCSC)C(=O)N[C@@H](CC(=O)O)C(=O)N[C@@H](Cc1ccccc1)C(N)=O` [Peptide E, Glt--Tyr(SO3 H)--Met--Gly--Trp--Met--Asp--Phe--NH2] (HELM PEPTIDE1{[O=C(O)CCCC(=O)[*:2]].[O=C([C@H](Cc1ccc(OS(=O)(=O)O)cc1)N[*:1])[*:2]].M.G.W.M.D.F.[am]}$$$$V2.0), the “Average: Mean ± S.E. (total of 7 scores), climbing behavior” value is recorded as 9.1 ± 0.9 in data set [3] (0.1 mg/kg s.c.), 7.9 ± 0.9 in data set [3] (0.3 mg/kg s.c.) and 6.5 ± 0.7 in data set [3] (1.0 mg/kg s.c.). The “ED50, inhibition of FR20 responding” value in data set [5] worked out at 0.004 mg/kg. For the same molecule, the “Inhibitory effect on methylphenidate-induced hyperlocomotion (in words)” value in data set [8] (s.c.) is “especially high inhibitory effect”. The “ED50, inhibition of methylphenidate-induced hyperlocomotion” value in data set [8] stood at 0.0879 mg/kg.
